The source of these data is publication PMC2855520, “Anti-infective activity of apolipoprotein domain derived peptides in vitro: identification of novel antimicrobial peptides related to apolipoprotein B with anti-HIV activity” (BMC Immunology, 2010).

pIC50: −log10 of the molar value. Where two headings read alike, the source gives them in different places. No end group written: not given here.

Data set [1] relates to HSV1. To be noted: for IC50: read-out: IC50 Concentration (μM) HSV1, Vero cells, 90 PFU/well, peptide present 1 h, plaques counted after 2 d, averages for several experiments.
Data set [2] concerns Staphylococcus aureus (ATCC 6538P). To be noted: for IC50: read-out: IC50 Concentration (μM) S. aureus, turbidity (A620) of serial dilutions in LB broth, ~1 × 10^5 CFU, overnight 37C, averages for several experiments.
Procedure: (§1) A microdilution method was used [8]: paired dilutions of compounds in LB broth, arranged in 96-well plates were inoculated with around 1 × 10^5 CFU Pseudomonas aeruginosa (ATCC 9027) or Staphylococcus aureus (ATCC 6538P). After overnight incubation at 37C, absorbance at 620 nm (A620) was assessed, and the IC50 concentrations determined.
The test system of data set [3] is Pseudomonas aeruginosa (ATCC 9027). Particulars: for IC50: read-out: IC50 Concentration (μM) P. aeruginosa, turbidity (A620) of serial dilutions in LB broth, ~1 × 10^5 CFU, overnight 37C, averages for several experiments.
Procedure: as §1
The subject of data set [4] is HSV1. Particulars: earlier reports, organism not specified at this place; ref [9]; cited from earlier work. The text has this:
In the second group of peptides, apoEdp - used as a positive control - was active against all three organisms, as found in our previous studies.

Another data set has as its system TZMbl cells. In kind it is cell-based. The method, then: Cytotoxicity assessment - Vero cells growing in 96-well plates were treated with various peptide concentrations. After 48 h incubation, 25 μl 3-(4,5-dimethylthiazol-2-yl)-2,5-diphenyltetrazolium bromide (MTT) in 0.5% medium was added (1 mg/ml final concentration), and cells incubated for 2 h. Growth medium was then carefully removed and formazan crystals solubilised in […] of DMSO, prior to reading absorbance at 570 nm (A570). TZMbl cytotoxicity was assessed using the WST-1 cell proliferation reagent (Roche). Experiments were performed as for the anti-infectivity assay, WST-1 was diluted 1/10 into each well at various time points and cell proliferation was measured by absorbance at 450 nm.

Data set [5] has as its system human red blood cells. In kind it is cell-based. The method, then: Freshly washed human red blood cells were added to peptides diluted in PBS in 96-well plates (20 × 10^6 red blood cells were added per well). After 2 h incubation at 37°C, plates were centrifuged (3000 g, 5 min) and 80 μl of supernatant transferred to further 96-well plates containing 0.75% ammonium hydroxide in distilled water.

Data set [6] deals with human red blood cells. More on the design: method as in PMID 17681018. Particulars: cited from earlier work.

As to RALVDTLKFVTQAEGAK [apoB1000-1016], the “antiviral activity against HSV1 (in words)” value in the data set on HSV1 [1] (plaque reduction assay in Vero cells) is “inactive”. The IC50 in the data set on HSV1 [1] (plaque reduction assay) was above 40 µM; in data set [2], above 54 µM; in data set [3], above 54 µM.

In turn, GERLRARMEGERLRARME [apoE(211-219)dp] had a pIC50 in the data set on HSV1 [1] (1 h) below 4.40. Further, the IC50 in data set [2] and in data set [3] was above 54 µM each time.

On to KFMETVAEKALQEYRK [apoJ409-424], for which the values for the IC50 (in the data set on HSV1 [1] (plaque reduction assay); in data set [2]; in data set [3]) were above 40 µM, above 54 µM and above 54 µM, respectively.

As to “apoE(141-149): nonomer peptide of the apoE receptor binding region (LRKLRKRLL; UniProt P02649 159-167, looked up, fragment)”, the “anti-infective activity (in words)” value in the data set with HSV1 [4] is “inactive”.

In the case of WRWRKRWRKWRWRKRWRK [apoBdpL/R-W], the “toxicity against TZMbl cells” value in the data set on TZMbl cells is given as “no detectable toxicity”. Besides, the haemolytic activity entry with human red blood cells [5] is given as “non-haemolytic”.

As for “DWLKAFYDKVAEKLKEAF [apoA1-18A, reference compound]”, the pIC50 with HSV1 [1] (read-out: IC50 concentration against HSV1, plaque reduction assay, 95%CI 31.9 - 41.1 μM) was 4.44.

As for NFHAMFQPFLEMIHEAQQ [apoJ219-236], the values for the IC50 (in the data set on HSV1 [1] (plaque reduction assay); in data set [2]; in data set [3]) were above 40 µM, above 54 µM and above 54 µM, respectively.

In the case of LQVAERLTRKYNELLKSYQ [apoJ311-329], the IC50 is above 40 µM in the data set with HSV1 [1] (plaque reduction assay), above 54 µM in data set [2] and above 54 µM in data set [3].

Consider RDADDLQKRRDADDLQKR [apoE(150-158)dp], for which the pIC50 in the data set with HSV1 [1] (1 h) was below 4.40. The IC50 in data set [2] and in data set [3] was above 54 µM each time.

As to RLTRKRGLKRLTRKRGLK [apoB(3359-3367)dp], the pIC50 with HSV1 [1] (1 h) is below 4.40. Also, the IC50 in data set [2] and in data set [3] was above 54 µM throughout.

VTDYGKDLMEKVKSPELQ [apoAII 18-35]: the values for the IC50 (in the data set with HSV1 [1] (plaque reduction assay); in data set [2]; in data set [3]) were above 40 µM, above 54 µM and above 54 µM, respectively.

As to PLGEEMRDRARAHVDALRTHLA [apoA1-H6], the IC50 in the data set on HSV1 [1] (plaque reduction assay) was above 40 µM; in data set [2] it was above 54 µM; in data set [3], above 54 µM.

As for HMLDVMQDHFSRASSIIDEL [apoJ151-170], the pIC50 with HSV1 [1] (1 h) is below 4.40. The IC50 in data set [2] and in data set [3] was above 54 µM in each case.

For PYSDELRQRLAARLEALKENGG [apoA1-H7], the values for the IC50 (in the data set with HSV1 [1] (plaque reduction assay); in data set [2]; in data set [3]) were above 40 µM, above 54 µM and above 54 µM, respectively.

The substance RLRARMEEMRLRARMEEM [apoE(213-221)dp] showed a pIC50 in the data set with HSV1 [1] (1 h) below 4.40. In addition, the IC50 in data set [2] and in data set [3] was above 54 µM in each case.

As for VTDYGKDLMEKVKEWLNS [apoAII 18-30+], the IC50 is above 40 µM with HSV1 [1] (plaque reduction assay), above 54 µM in data set [2] and above 54 µM in data set [3].

For the substance “PVLDEFREKLNEELEALKQKMK [apoA1-consensus]”, the IC50 in the data set on HSV1 [1] (plaque reduction assay) was above 40 µM; in data set [2], above 54 µM; in data set [3], above 54 µM.

Turning to PYLDDFQKKWQEEMELYRQKVE [apoA1-H4], the results for the IC50 (in the data set on HSV1 [1] (plaque reduction assay); in data set [2]; in data set [3]) were above 40 µM, above 54 µM and above 54 µM, respectively.

As to “LRKLRKRLLLRKLRKRLL-NH2 [apoE(141-149)dp, reference compound]”, the pIC50 in the data set on HSV1 [1] (1 h) was 4.78; in data set [2] (ATCC 6538), 5.05; in data set [3] (ATCC 9027), 5.60. Moreover, the haemolytic activity entry in the data set on human red blood cells [6] is on record as “non-haemolytic”.

Regarding ARLAEYHAKATEHLSTLSEKAK [apoA1-H8], the figures for the IC50 (in the data set on HSV1 [1] (plaque reduction assay); in data set [2]; in data set [3]) were above 40 µM, above 54 µM and above 54 µM, respectively.

LRKLRKRLLRDADDLQKRLA [apoE141-162] had a pIC50 in the data set with HSV1 [1] (1 h) below 4.40. Further, the IC50 in data set [2] and in data set [3] was above 54 µM in each case.

With CKNKEKKCCKNKEKKC [apoH(281-288)dp], the results for the IC50 (in the data set with HSV1 [1] (plaque reduction assay); in data set [2]; in data set [3]) were above 40 µM, above 54 µM and above 54 µM, respectively.
